How the values were obtained:
cyclin D1 = assay: Western blot analysis of cyclin D1 expression in TSPC; assay type: cell-based, rabbit; details: TSPC treated 24 h; compared with solvent-treated cells; normalized to β-actin
Experimental: Primary rabbit TSPC were treated with 10NM 29-mer or its variants for 24 h. Representative blots (A) and densitometric analysis with the SD (B) from three independent experiments are shown. Cyclin D1 expression was normalized to ([…]. *P<0.01 vs. solvent-treated cells. ^#P<0.05 vs. 29-mer-treated cells.
(§1) Achilles tendons from New Zealand White rabbits (6-8 months old, 3.0-4.0 kg) were used in this study. Achilles tendons were washed two times with sterile phosphate-buffered saline (PBS) containing 50 μg/ml gentamicin. The tendon and tendon sheath were cut into small pieces (1-2 mm^3). Each 100 mg of fragment was then digested in a solution containing 3 mg/ml of type I collagenase and 4 mg/ml of dispase in 1 ml balance salt solution (BSS; Alcone) at 37° C. for 4 hours. The digested tissues were washed three times with PBS and collected by centrifugation (800 g for 10 min). The digested tissues were placed in tissue-culture plates (Falcon Labware; NJ, USA) and resuspended in high-glucose DMEM supplemented with 10% FBS and 50 μg/ml gentamycin, and maintained at 37° C. with 5% CO2. After 5 days, the medium was changed to remove the loosened tissue residues. Subsequently, tendon cells were incubated with 10% FBS medium for 2 days, and then cultured with a basal medium (2% FBS, 1% ITSE, 300 μg/ml L-glutamine, 1% antibiotic-antimicotic solutions) for further 10 days. Culture medium was changed every 3 days. For passage, tendon cells were harvested with 0.25% trypsin/EDTA, cell counting by haemocytometer, approximately 5×10^3 cells were seeded in each well of a 96-well cell culture plate or 2×10^5 cells were seeded in each well of a 6-well cell culture plate for 24 h. These expanded tendon cells were then treated with 10 μM 29-mer or its variants in fresh basal medium for further 24 h and subjected to cell proliferation assay and western blot analysis, respectively.
Cell lysis, SDS-PAGE, and antibodies used for immunoblotting were performed as described (Ho et al., 15-deoxy-Delta(12,14)-prostaglandin J2 induces vascular endothelial cell apoptosis through the sequential activation of MAPKS and p53. J Biol. Chem., 2008; 283(44): 30273-30288). The band intensity in immunoblot was evaluated with a Model GS-700 imaging densitometer (Bio-Rad Laboratories, Hercules, Calif.) and analyzed using Labworks 4.0 software.
However, the 29-mer effect on cyclin D1 protein induction was almost abolished by alanine/glycine replacement at residue S93, A96, Q98, 1103, 1104 and R106, respectively (1.3±0.1, 1.5±0.3, 1.3±0.1, 0.9±0.1, 1.3±0.2, and 1.0±0.3). […] The data also imply that the PDSP at positions Ser93, Ala96, Gln98, Ile103, Ile104, and Arg106 are important for sustaining the PDSP effect on induction of TSPC proliferation.

Primary rabbit TSPC = assay: TSPC cell proliferation assay (fluorometric kit); assay type: cell-based; details: 10 μM peptide, low serum media, PDSP solvent (DMSO) set as 100%, mean±SE of three experiments
Experimental: Primary rabbit TSPC were cultured to near-confluence in a 75T cell culture flask and then verified by immunostaining of a TSPC marker, nucleostemin (>98%; green color). Nuclei were stained with Hoechst 33258 (blue color) and visualized by an epifluorescence microscopy. The nucleostemine-positive TSPC were treated with 10 μM 29-mer or its variants for 24 h. The numbers of TSPC after 24-h expansion were detected with a cell proliferation assay kit (BioVision; catalog number: K307). The TSPC treated with PDSP solvent was set as 100%. Results are expressed as mean±SE of three independent experiments.
as §1
Cell Proliferation Assay Kit (Fluorometric) was purchased from BioVision (Catalog #: K307) and used to evaluate cell proliferation according to the manufacturer's recommendations. The fluorescence was read at 480 nm for excitation and 538 nm for emission on a SPECTRAmax GEMINI XS fluorescence microplate spectrophotometer (Molecular Devices, Sunnyvale, Calif., USA).
Rabbit TSPC isolation was described above. TSPC in low serum media were treated with 10 μM of one of the 29-mer variants for 24 h. Cell proliferation was examined by a cell proliferation kit based on a kit provided nuclear dye that specifically binds to nucleic acid in the cell and generates green fluorescence.

SLGAEQRTESIIHRALYYDLISSPDIHGT (listed as Homo sapiens) [29-mer, PEDF-derived short peptide, human PEDF residues 93-121]
induction of the cyclin D1 protein (cyclin D1): 2.9±0.5 fold
TSPC proliferation (numbers of TSPC after 24-h expansion) (Primary rabbit TSPC): 135±6.1%

From patent US20210244791A1, “APPLICATION OF PEDF-DERIVED SHORT PEPTIDES IN TENDON HEALING” (BRIM Biotechnology, Inc., priority 2018, published 2021)
